Measured values published in ChEMBL document CHEMBL1201862, “PubChem BioAssay data set” (2004).
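A five-concentration, 48-hour dose response in 96-well plates underlies each endpoint, interpolated linearly between surrounding concentrations. The concentration for 50% growth inhibition is given as GI50.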 Active and inactive are the calls of the source. Rule as the data show it: active = GI50 up to about 1.1 µM and inactive = higher.

Experiments:
Experiment in all cases: NCI anticancer screen, dose series, 48 h
HCC 2998 = system: HCC 2998
Hs-578T = system: Hs-578T
NCI-H460 = system: NCI-H460
MDA-N = system: MDA-N
SK-OV-3 = system: SK-OV-3
OVCAR-5 = system: OVCAR-5
NCI-H23 = system: NCI-H23
SF-539 = system: SF-539
HL-60 = system: HL-60
COLO 205 = system: COLO 205
NCI-H226 = system: NCI-H226
ACHN = system: ACHN
CAKI-1 = system: CAKI-1
TK-10 = system: TK-10
786-0 = system: 786-0
BT-549 = system: BT-549
UACC-257 = system: UACC-257
SN12C = system: SN12C
MOLT-4 = system: MOLT-4
NCI-H522 = system: NCI-H522

SMILES	GI50 (HCC 2998)	GI50 (Hs-578T)	GI50 (NCI-H460)	GI50 (MDA-N)	GI50 (SK-OV-3)	GI50 (OVCAR-5)	GI50 (NCI-H23)	GI50 (SF-539)	GI50 (HL-60)	GI50 (COLO 205)	GI50 (NCI-H226)	GI50 (ACHN)	GI50 (CAKI-1)	GI50 (TK-10)	GI50 (786-0)	GI50 (BT-549)	GI50 (UACC-257)	GI50 (SN12C)	GI50 (MOLT-4)	GI50 (NCI-H522)
CC(C)C1=C(Cc2ccccc2)C(=O)O/C1=C\c1cc(Cl)c(O)c(Cl)c1	18.6 µM (inactive)	21.8 µM (inactive)	18.2 µM (inactive)	18.3 µM (inactive)	19.2 µM (inactive)	21.7 µM (inactive)	13.8 µM (inactive)	21.5 µM (inactive)	16.3 µM (inactive)	17.4 µM (inactive)	20.3 µM (inactive)	17.3 µM (inactive)	15.8 µM (inactive)	26 µM (inactive)	17.1 µM (inactive)	> 10 µM (inactive)	16.9 µM (inactive)	17.2 µM (inactive)	21.2 µM (inactive)	
Cc1ccsc1/C=N/Nc1cc(C)c2cccc(C)c2n1	> 100 µM (inactive)	> 100 µM (inactive)		> 100 µM (inactive)	84.5 µM (inactive)	> 100 µM (inactive)	> 100 µM (inactive)		3.78 µM (inactive)	> 100 µM (inactive)	> 100 µM (inactive)	> 100 µM (inactive)	> 100 µM (inactive)	> 100 µM (inactive)	24.4 µM (inactive)	> 100 µM (inactive)	> 100 µM (inactive)	> 100 µM (inactive)		
COC1(OC)CC(CO)(CNc2nc(N)nc(Cl)c2C=O)C1	28.1 µM (inactive)	39.8 µM (inactive)	85.7 µM (inactive)			> 100 µM (inactive)	17.6 µM (inactive)	> 100 µM (inactive)	13.6 µM (inactive)	> 100 µM (inactive)	93.3 µM (inactive)	3.48 µM (inactive)	42.6 µM (inactive)	> 100 µM (inactive)	> 100 µM (inactive)	48.5 µM (inactive)	27 µM (inactive)	28.4 µM (inactive)	21.1 µM (inactive)	1.99 µM (inactive)
CC(=O)OC12c3ccccc3C(c3ccccc31)C1C(=O)N(Nc3ccccc3)C(=O)C12 (stereo not given)	> 100 µM (inactive)	23.1 µM (inactive)	> 100 µM (inactive)	> 100 µM (inactive)	> 100 µM (inactive)	> 100 µM (inactive)	> 100 µM (inactive)	> 100 µM (inactive)	> 100 µM (inactive)	> 100 µM (inactive)	> 100 µM (inactive)	> 100 µM (inactive)	> 100 µM (inactive)	> 100 µM (inactive)	> 100 µM (inactive)	> 100 µM (inactive)	> 100 µM (inactive)	> 100 µM (inactive)	> 100 µM (inactive)	
COc1ccc(/C=C(\C#N)c2ccccn2)cc1OC	65.2 µM (inactive)		34.3 µM (inactive)	42.4 µM (inactive)	29.8 µM (inactive)	51.4 µM (inactive)	43.7 µM (inactive)	31.9 µM (inactive)	27.1 µM (inactive)	69.2 µM (inactive)	27.2 µM (inactive)	55.8 µM (inactive)	60.7 µM (inactive)	63.7 µM (inactive)	43.9 µM (inactive)	18.6 µM (inactive)	> 100 µM (inactive)	53 µM (inactive)	57.4 µM (inactive)	39.8 µM (inactive)
COC(=O)/C=C/C1(O)C=CC(=O)C=C1	7.52 µM (inactive)		16.3 µM (inactive)	1.89 µM (inactive)	17 µM (inactive)	5.78 µM (inactive)	3.31 µM (inactive)	2.15 µM (inactive)	2.38 µM (inactive)	3.4 µM (inactive)	19.6 µM (inactive)	2.1 µM (inactive)	1.41 µM (inactive)	5.37 µM (inactive)	2.23 µM (inactive)	5.27 µM (inactive)	3.3 µM (inactive)	1.77 µM (inactive)	2.02 µM (inactive)	0.338 µM (active)
COc1ccccc1C[C@@H]1OC2(C=CC(=O)CC2SC(=O)c2ccccc2)O[C@H]1Cc1ccccc1OC (stereo not given in full)		1.25 µM (inactive)	2.44 µM (inactive)	1.51 µM (inactive)	2.17 µM (inactive)	1.19 µM (inactive)	2.03 µM (inactive)	1.67 µM (inactive)	1.16 µM (inactive)	1.69 µM (inactive)	2.08 µM (inactive)	1.51 µM (inactive)	1.79 µM (inactive)	1.54 µM (inactive)	0.275 µM (active)	0.318 µM (active)	1.51 µM (inactive)	2.52 µM (inactive)	0.449 µM (active)	
CC(C)C1OC23CCCCC2C(C#N)(C#N)C1(C#N)C(=N)O3 (stereo not given)	13.4 µM (inactive)	16.4 µM (inactive)	4.73 µM (inactive)	15.8 µM (inactive)	> 100 µM (inactive)	20.1 µM (inactive)	26.1 µM (inactive)	18 µM (inactive)	5.31 µM (inactive)	14.6 µM (inactive)	98.6 µM (inactive)	33.1 µM (inactive)	8.34 µM (inactive)	19.9 µM (inactive)	14.2 µM (inactive)	18.8 µM (inactive)	20.6 µM (inactive)	15.2 µM (inactive)	23.1 µM (inactive)	
Cc1n[nH]c(=O)c2cc(-c3ccccc3)[nH]c12	44.3 µM (inactive)	26.4 µM (inactive)	48 µM (inactive)	73.3 µM (inactive)	> 100 µM (inactive)	50.7 µM (inactive)	84.1 µM (inactive)	> 100 µM (inactive)	54 µM (inactive)	27.7 µM (inactive)	72.9 µM (inactive)	32.8 µM (inactive)	> 100 µM (inactive)	59.3 µM (inactive)	> 100 µM (inactive)	91.4 µM (inactive)	49.8 µM (inactive)	75.3 µM (inactive)	17.6 µM (inactive)	
ClCCN(CCCl)c1ccc(CNCCCNCc2ccc(N(CCCl)CCCl)cc2)cc1	2.1 µM (inactive)	3.13 µM (inactive)	0.402 µM (active)		2.61 µM (inactive)	3.97 µM (inactive)	3 µM (inactive)	1.46 µM (inactive)	1.03 µM (active)	1.62 µM (inactive)	6.75 µM (inactive)	0.521 µM (active)	6.64 µM (inactive)	2.67 µM (inactive)	2 µM (inactive)	3.38 µM (inactive)	2.29 µM (inactive)	1.63 µM (inactive)		2.13 µM (inactive)
O=C(CCN1CCCC1)c1ccc(Oc2ccc(F)cc2)cc1	45.1 µM (inactive)	30.1 µM (inactive)	> 100 µM (inactive)	58.3 µM (inactive)	> 100 µM (inactive)	> 100 µM (inactive)	> 100 µM (inactive)	29.9 µM (inactive)	16 µM (inactive)	23 µM (inactive)	> 100 µM (inactive)	> 100 µM (inactive)	16.3 µM (inactive)	30.1 µM (inactive)	16.6 µM (inactive)	74 µM (inactive)	43.1 µM (inactive)	97.1 µM (inactive)	24.4 µM (inactive)	
O=C1c2ccsc2-c2cccc3cccc1c23.O=C1c2sccc2-c2cccc3cccc1c23		0.366 µM (active)	4.94 µM (inactive)		18.5 µM (inactive)	1.71 µM (inactive)		6.22 µM (inactive)	11.2 µM (inactive)	2.33 µM (inactive)	2.03 µM (inactive)	2.37 µM (inactive)	2.26 µM (inactive)	2.55 µM (inactive)	5.89 µM (inactive)	1.94 µM (inactive)	9.2 µM (inactive)	6.67 µM (inactive)	1.29 µM (inactive)	5.21 µM (inactive)
O=C1/C(=C2\SCC(=O)N2c2ccccc2)SC(=S)N1c1ccccc1	28.2 µM (inactive)	34.5 µM (inactive)	39.1 µM (inactive)	44.2 µM (inactive)	23.6 µM (inactive)	> 100 µM (inactive)	72.6 µM (inactive)	26.4 µM (inactive)	78.5 µM (inactive)	67 µM (inactive)	20.5 µM (inactive)	26.2 µM (inactive)	21.1 µM (inactive)	28.7 µM (inactive)	47.6 µM (inactive)	2.82 µM (inactive)	42.8 µM (inactive)	25.6 µM (inactive)	17.7 µM (inactive)	
CC(C)(C)NC1=NC(C(F)(F)F)(C(F)(F)F)NC(=O)N1	27.4 µM (inactive)	58.2 µM (inactive)	47.4 µM (inactive)	49.2 µM (inactive)	> 100 µM (inactive)	> 100 µM (inactive)	> 100 µM (inactive)	> 100 µM (inactive)	16.5 µM (inactive)	> 10 µM (inactive)	> 100 µM (inactive)	39.7 µM (inactive)	46.1 µM (inactive)	67.8 µM (inactive)	52.4 µM (inactive)	16.9 µM (inactive)	54.2 µM (inactive)	54.7 µM (inactive)	30.2 µM (inactive)	
CCc1c2c(nc3ccc(O)cc13)-c1cc3c(c(=O)n1C2)COC(=O)[C@]3(O)CC [7-ETHYL-10-HYDROXYCAMPTOTHECIN]		0.0791 µM (active)	< 0.001 µM (active)	0.00206 µM (active)		0.00472 µM (active)	< 0.001 µM (active)	< 0.001 µM (active)	< 0.001 µM (active)	0.0556 µM (active)	< 0.001 µM (active)	< 0.001 µM (active)	< 0.001 µM (active)	0.0933 µM (active)	< 0.001 µM (active)	< 0.001 µM (active)	0.013 µM (active)	< 0.001 µM (active)	< 0.001 µM (active)	
